# Patent US6525063B2, “Antitumour 1,5-diazaanthraquinones” (Universidad Complutense de Madrid, priority 1998, dated 2003)
# pIC50: −log10 of the molar value.
# Experiments:
# [1] = tested on: A549 (ATCC CCL-185) cells; experiment: in vitro cytotoxic assay, A549 cells; assay type: cell-based; conditions: 72 h; A549 human lung carcinoma monolayer; three days of incubation; Crystal Violet staining; approximate IC50
# Protocol: (§1) Cells were maintained in logarithmic phase of growth in Eagle's Minimum Essential Medium, with Earle's Balanced Salts, with 2.0 mM L-glutamine, with non-essential amino acids, without sodium bicarbonate (EMEM/neaa); supplemented with 10% Fetal Calf Serum (FCS), 10^−2 M sodium bicarbonate and 0,1 g/l penicillin-G+streptomycin sulfate.
# (§2) A screening procedure has been carried out to determine and compare the antitumour activity of these compounds, using an adapted form of the method described by Raymond J. Bergeron, Paul F. Cavanaugh Jr., Steven J. Kline, Robert G. Hughes, Jr., Gary T. Elliot and Carl W. Porter. Antineoplastic and antiherpetic activity of spermidine catecholamide iron chelators. Biochem. Bioph. Res. Comm. 1984, 121, 848-854. The antitumour cells employed were P388 (ATCC CCL-46) (suspension culture of a lymphoid neoplasm from DBA/2 mouse), A549 (ATCC CCL-185) (monolayer culture of a human lung carcinoma), HT-29 (ATCC HTB-38) (monolayer culture of a human colon carcinoma) and SK-MEL-28 (ATCC HTB-72) (monolayer culture of a human melanoma).
# (§3) A549 (ATCC CCL-185), HT-29 (ATCC HTB-38) and SK-MEL-28 (ATCC HTB-72) cells were seeded into 16 mm wells at 2×10^4 cells per well in 1 ml aliquots of MEM 10FCS containing the indicated concentration of drug. A separate set of cultures without drug was seeded as control growth to ensure that cells remained in exponential phase of growth. All determinations were carried out in duplicate. After three days of incubation at 37° C., 10% CO2 in a 98% humid atmosphere, the wells were stained with 0.1% Crystal Violet. An approximately IC50 was determined by comparing the growth in wells with drug to the growth in wells control.
# (§4) The results of the in vitro cytotoxic assays for these compounds (4a), (4b), (4c), (4d), (11a), (12a), (13a), (13b), and (14a) with the cellular lines P388 (ATCC CCL-46), A549 (ATCC CCL-185), HT-29 (ATCC HTB-38) and SK-MEL-28 (ATCC HTB-72) are shown in the following Table.
# [2] = tested on: P388 (ATCC CCL-46) cells; experiment: in vitro cytotoxic assay, P388 cells; assay type: cell-based; conditions: 72 h; P388 lymphoid neoplasm from DBA/2 mouse, suspension culture; three days of incubation; approximate IC50 by growth vs control
# Protocol: as §1, §2
# P388 (ATCC CCL-46) cells were seeded into 16 mm wells at 1×10^4 cells per well in 1 ml aliquots of MEM 5FCS containing the indicated concentration of drug. A separate set of cultures without drug was seeded as control growth to ensure that cells remained in exponential phase of growth. All determinations were carried out in duplicate.
# as §4
# [3] = tested on: HT-29 (ATCC HTB-38) cells; experiment: in vitro cytotoxic assay, HT-29 cells; assay type: cell-based; conditions: 72 h; HT-29 human colon carcinoma monolayer; three days of incubation; Crystal Violet staining; approximate IC50
# Protocol: as §1, §2, §3, §4
# [4] = tested on: SK-MEL-28 (ATCC HTB-72) cells; experiment: in vitro cytotoxic assay, SK-MEL-28 cells; assay type: cell-based; conditions: 72 h; SK-MEL-28 human melanoma monolayer; three days of incubation; Crystal Violet staining; approximate IC50
# Protocol: as §1, §2, §3, §4
melting point,Structure (SMILES),pIC50 [1],pIC50 [2],pIC50 [3],pIC50 [4]
218 to 220 °C,"CCc1cnc2c(c1)C(=O)c1ncc(CC)cc1C2=O [(4a), 3,7-Diethyl-1,5-diazaanthraquinone]",7.30,6.35,6.72,7.30
> 300 °C,"Cc1cnc2c(c1)C(=O)c1ncc(C)cc1C2=O [(4b), 3,7-Dimethyl-1,5-diazaanthraquinone]",7.30,5.13,6.29,6.96
253 to 254 °C,"Cc1ccnc2c1C(=O)c1nccc(C)c1C2=O [(4c), 4,8-Dimethyl-1,5-diazaanthraquinone]",6.30,5.38,5.98,5.98
180 to 182 °C,"CCc1c(C)cnc2c1C(=O)c1ncc(C)c(CC)c1C2=O [(4d), 4,8-Diethyl-3,7-dimethyl-1,5-diazaanthraquinone]",5.47,5.47,5.47,5.47
208 to 210 °C,"Cc1cnc2c(c1)C(=O)c1nccc(Cl)c1C2=O [(11a), 8-Chloro-3-methyl-1,5-diazaanthraquinone]",7.52,6.82,7.40,7.52
,"CC1C=CN(N(C)C)C2=C1C(=O)c1nccc(Cl)c1C2=O (stereo not shown) [(12a), 8-Chloro-1-dimethylamino-4-methyl-1,4-dihydro-1,5-diazaanthraquinone]",6.48,5.48,5.78,6.48
> 300 °C,"Cc1ccnc2c1C(=O)c1nccc(Cl)c1C2=O [(13a), 4-Chloro-8-methyl-1,5-diazaanthraquinone]",6.72,5.41,5.71,6.72
,"O=C1c2nccc(-c3ccccc3[N+](=O)[O-])c2C(=O)c2nccc(Cl)c21 [(13b), 4-Chloro-8-(o-nitrophenyl)-1,5-diazaanthraquinone]",7.52,6.57,6.57,7.15
97 to 100 °C,"Cc1ccnc2c1C(=O)c1nccc(N(C)C)c1C2=O [(14a), 4-Dimethylamino-8-methyl-1,5-diazaanthraquinone]",6.43,5.03,6.03,6.43
